Reference: US7820679B2, “N-(-3-methoxy-5-methylpyrazin-2-yl)-2-(4-′1,3,4-oxadiazol-2-yl-phenyl)pyridine-3 sulphonamide as an anticancer agent” (AstraZeneca AB, priority 2002, dated 2010)
Several values for one entry are separate records, joined by “and”; a condition that tells them apart may be missing. Equal entries are not always repeated. Where no end group is shown, it is not given here.

Tests used:
[1] = test system: ET-1 induced MAPK phosphorylation in MC3T3.E1/J1 cells; assay: Inhibition of ET-1 induced MAPK phosphorylation in osteoblast cell line MC3T3.E1/J1 (western blot, densitometry); assay type: cell-based, mouse; settings: Serum Free Media = 100.00
Description: The MC3T3. E1/J1 cell line was isolated from a parental cell line, MC3T3-E1 (available from Invitrogen), which had in turn been derived from newborn C57BL/6 mouse calvaria. The MC3T3 E1/J1 line is described as an osteoblastic line. To initiate the experiments described below, MC3T3.E1/J1 cells were plated at a density of 2.4×10^4 cells/well (24 well plates) in serum containing media and incubated for 48 hours. The cells were washed twice in PBS and re-incubated for approximately 17 hours in serum starvation media.
All media was then removed and the cells lysed and stored at −20° C. for electrophoresis/western blot, which localized phosphorylated MAPK and phosphorylated Akt probing with anti-phospho-p44/42 MAPK (Thr 202/204) and anti-Phospho AKT (Ser 473) antibodies (both commercially available from Cell Signalling Technology). The protein bands were quantitated by densitometry, and plotted as arbitrary densitometry units. Phosphorylated MAPK levels were normalised to total MAPK levels.

[2] = target: T1, Human recombinant ETB receptor (Homo sapiens, UniProt P24530); assay: Endothelin human receptor binding assay (125I-ET-1 competition), ETB; settings: at a concentration of 10^-4 M, n=3
T1 construct: expressed in transfected cells; host or cells: mouse erythroleukaemic (MEL) cells, membrane preparation
T1 sequence (P24530 27-442): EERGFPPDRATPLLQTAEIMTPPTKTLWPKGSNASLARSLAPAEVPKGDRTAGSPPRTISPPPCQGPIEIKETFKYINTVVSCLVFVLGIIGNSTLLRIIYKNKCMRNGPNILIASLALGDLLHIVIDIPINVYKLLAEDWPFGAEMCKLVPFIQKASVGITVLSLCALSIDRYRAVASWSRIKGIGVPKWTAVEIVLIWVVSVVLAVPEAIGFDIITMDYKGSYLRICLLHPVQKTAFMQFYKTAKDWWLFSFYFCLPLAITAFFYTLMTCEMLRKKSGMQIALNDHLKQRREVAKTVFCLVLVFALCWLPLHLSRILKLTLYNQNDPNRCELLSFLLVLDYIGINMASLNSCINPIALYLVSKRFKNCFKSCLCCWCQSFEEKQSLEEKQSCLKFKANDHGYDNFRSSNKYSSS
Excerpt: 1) Endothelin Human Receptor Binding Assay

[3] = test system: LOVO colon tumour; assay: Inhibition of angiogenesis in primary tumours, intradermal LOVO tumour in nude mice; assay type: in vivo; settings: 5 days, vs vehicle
Excerpt: (§1) A 1 cm^2 area with the tumour at the centre was examined and the number of blood vessels bifurcations within that area supplying the tumour were counted.

[4] = test system: DU145 prostate tumour; assay: Inhibition of angiogenesis in primary tumours, intradermal DU145 tumour in nude mice; assay type: in vivo; settings: 5 days, vs vehicle
Excerpt: as §1

[5] = test system: endothelin receptors; assay: Human forearm blood flow, vasoconstriction in response to infused ET-1; assay type: in vivo; settings: healthy male subjects, single oral doses 10 mg and 30 mg, 2-4 hours post dosing; p=0.0210; evidence of a dose response
Excerpt: Human forearm blood flow can be assessed by temporarily impeding the venous drainage from the arm by the application of a pneumatic cuff on the upper arm, which is then inflated to just above venous pressure. The resulting arterial flow into the arm with no corresponding venous drainage leads to engorgement and swelling of the forearm, which can be detected with sensitive strain gauges. Infusion of the arterial vasoconstrictor ET-1 into the brachial artery leads to a reduction in forearm distension due to decreased arterial inflow. This vasoconstriction is mediated via endothelin receptors on the vascular endothelium and associated smooth muscle.

| Compound | Phosphorylated MAPK, Average ([1]; ET-1 100 nm alone, 3 minutes stimulation) | mean displacement at the ETB receptor [2] | Phosphorylated MAPK, Average ([1]; ET-1 100 nm + Compound (I) 0.1 μm, normalised to total MAPK) | Phosphorylated MAPK, Average ([1]; ET-1 100 nm + Compound (I) 1 μm, normalised to total MAPK) | Phosphorylated MAPK, Average ([1]; ET-1 100 nm + Compound (I) 10 μm, normalised to total MAPK) | Phosphorylated MAPK, Average ([1]; ET-1 100 nm + Compound (I) 20 μm, normalised to total MAPK) | Inhibition of vessel count ([3]; 25 mg/kg once daily p.o.) | Inhibition of vessel count ([3]; 50 mg/kg once daily p.o., 50 mg/kg) | Inhibition of vessel count ([4]; 25 mg/kg once daily p.o.) | Inhibition of vessel count ([4]; 50 mg/kg once daily p.o.) | forearm blood flow in response to infused ET-1 compared to placebo [5] |
| --- | --- | --- | --- | --- | --- | --- | --- | --- | --- | --- | --- |
| ET-1: endogenous 21 amino acid peptide, endothelin isoform; used as stimulus and radioligand (CSCSSLMDKECVYFCHLDIIW; ends and bridges not checked; cysteine pairing not given here; UniProt P05305 53-73, looked up) [reference compound] | 312.78 arbitrary densitometry units and 369.85 arbitrary densitometry units |  |  |  |  |  |  |  |  |  |  |
| COc1nc(C)cnc1NS(=O)(=O)c1cccnc1-c1ccc(-c2nnco2)cc1 [Compound (I), N-(3-methoxy-5-methylpyrazin-2-yl)-2-(4-[1,3,4-oxadiazol-2-yl]phenyl)pyridine-3-sulphonamide] |  | 1.2±0.7% | 422.11 arbitrary densitometry units | 157.41 arbitrary densitometry units | 105.15 arbitrary densitometry units | 109.18 arbitrary densitometry units | 28% (P < 0.001) | 20% (P = 0.001) and 28% (P < 0.001) | 38% (P < 0.001) | 30% (P < 0.05) | statistically significant reduction |
